In article PMC8373216, “Development and Preclinical Evaluation of New Inhaled Lipoglycopeptides for the Treatment of Persistent Pulmonary Methicillin-Resistant Staphylococcus aureus Infections” (Antimicrobial Agents and Chemotherapy, 2021):
Values after ≈ are worked out from the molar mass of the structure shown. Like-named read-outs stand apart in the source and are kept apart here.

What was measured:
Clostridium. perfringens = assay: microbe, parasite or virus in culture; assay type: cell-based
Streptococcus agalactiae = assay: Expanded panel broth microdilution MIC/MBC; assay type: cell-based; settings: for MIC: Streptococcus agalactiae
Enterococcus faecium = assay: Expanded panel broth microdilution MIC/MBC; assay type: cell-based; settings: for MIC: Enterococcus faecium, read-out: MIC
[1] = Single-dose nebulized nose-only inhalation PK in healthy rats; assay type: in vivo, rat; settings: rat, in vivo
Method: Rats were acclimated in the study facility for approximately 1 week prior to study start. Ten or eleven rats per cohort were loaded into the chamber at the time of dosing. […] An additional airflow set to 6 liters/min was admixed with the nebulizer output to further direct the test articles to the animals. […] The remaining port on the chamber was fit with an aerosol sampling filter for dose determination over a 5 min sampling period. The average dose delivered to the nose of each animal was calculated using an algorithm that was previously described ([49]). […] Animals were euthanized for collection of whole lungs and plasma at time points ranging from immediate postdose (IPD; approximately 30 min after dosing for nebulization) to 168 h postdose (7 days). Drugs were extracted from tissues using customized protein precipitation methods with an appropriate internal standard for each compound and transferred for analysis by LC-MS/MS (Sciex API4500 or API6500+ mass spectrometer [Sciex, Framingham, MA]). GraphPad Prism (La Jolla, CA) was used for statistical analyses and data plotting. […] The data were applied to a noncompartmental analysis after extravascular dosing input and fit to a linear up/log down model. Statistical analysis of in vitro intracellular and biofilm activity was based on a two-way ANOVA with a Bonferroni post test. In vivo statistical analysis was based on the Kolmogorov-Smirnov test.

[2] = system: MRSA ATCC BAA 1556 (USA300); assay: In-house broth microdilution MIC screening; assay type: cell-based, Staphylococcus aureus; settings: Staphylococcus aureus; broth microdilution; read-out: MIC Value, MRSA ATCC BAA 1556
[3] = system: Streptococcus constellatus; assay: Expanded panel broth microdilution MIC; assay type: cell-based
[4] = system: Staphylococcus haemolyticus; assay: Expanded panel broth microdilution MIC; assay type: cell-based
Streptococcus oralis = assay: Expanded panel broth microdilution MIC; assay type: cell-based
[5] = system: MRSA ATCC BAA 1556 (USA300) biofilm; assay: Static MRSA biofilm killing, plastic microtiter plate, MEM
Clostridioides difficile = assay: Expanded panel broth microdilution MIC; assay type: cell-based
[6] = system: MRSA (ATCC BAA 1556; USA300); assay: Acute pulmonary MRSA infection in neutropenic rats, nebulized nose-only inhalation; assay type: in vivo, Staphylococcus aureus; settings: inhaled at 24 and 32 h postinfection, lungs at 48 h, RV40 14.4 mg/kg, RV94 18.8 mg/kg delivered
Method: Rats were rendered neutropenic with intraperitoneal (i.p.) cyclophosphamide on day −4 (150 mg/kg) and day −1 (100 mg/kg) relative to the challenge. On day 0 at 0 h, rats were challenged with MRSA via intranasal instillation at a target titer of 8.0 to 8.3 log10 CFU. At 24 and 32 h postchallenge, rats were loaded into a 12-port inhalation dosing tower, where they received nebulized drug or vehicle control treatments by nose-only inhalation. Animals were euthanized at 48 h postinfection for enumeration of lung MRSA titer. MRSA lung titer of test article treatments versus control is plotted for three separate experiments. […] Statistics are based on the Kolmogorov-Smirnov test for drug treatment versus control (RV94, P = 0.01). LOD = 2.1 log10 CFU/lungset.
Male Sprague Dawley rats (Envigo, Indianapolis, IN) weighing between 225 and 250 g were used in these studies. Rats were housed and acclimated to the study facility as described in the PK methods section. Rats were rendered neutropenic through a series of intraperitoneal cyclophosphamide (Sigma-Aldrich) injections on day −4 (150 mg/kg) and day −1 (100 mg/kg) relative to the challenge. On day 0 at 0 h, rats were challenged with MRSA ATCC BAA 1556 via intranasal instillation at a target titer of 8.0 to 8.3 log10 CFU using optical density and back-counting inoculum CFU. To prepare the inoculum, a frozen aliquot of the organism stored at −80°C was thawed, transferred into TSB, and incubated at 37°C while shaking for 16 h. Cultures were then centrifuged at 2,000 × g for 5 min, and the resulting pellet was resuspended in PBS and equilibrated. For the challenge procedure, rats were first anesthetized through use of 2 to 5% isoflurane in 100% oxygen, then restrained with a scruff grip and a total of 200 μl of inoculum was quickly introduced to one nare. The rat was held in a vertical position until the challenge was fully inhaled. Rats were monitored following challenge to ensure that normal respiration was achieved and then returned to their cage. […] At necropsy, whole lungs were aseptically removed and lung weights were recorded. […]

[7] = system: Peptostreptococcus anaerobius; assay: Expanded panel broth microdilution MIC; assay type: cell-based
[8] = system: Staphylococcus lugdunensis; assay: Expanded panel broth microdilution MIC; assay type: cell-based
[9] = male, Sprague Dawley, inhaled or intranasal

CCCCCCCCCCNCCN[C@@]1(C)C[C@H](O[C@H]2[C@H](Oc3c4cc5cc3Oc3ccc(cc3Cl)[C@@H](O)[C@@H](NC(=O)[C@@H](CC(C)C)NC)C(=O)N[C@@H](CC(N)=O)C(=O)N[C@H]5C(=O)N[C@H]3C(=O)N[C@H](C(=O)N[C@H](C(=O)O)c5cc(O)cc(O)c5-c5cc3ccc5O)[C@H](O)c3ccc(c(Cl)c3)O4)O[C@H](CO)[C@@H](O)[C@@H]2O)O[C@@H](C)[C@H]1O [RV40, N-decylaminoethylvancomycin]
MIC (Clostridium. perfringens): 0.015 µg/mL (≈ 9.19 nM)
MIC (Clostridium. perfringens; ATCC13124): 0.015 µg/mL (≈ 9.19 nM)
MIC:MBC (Streptococcus agalactiae; S. agalactiae, MBC on one organism): 1
MIC (Streptococcus agalactiae; ATCC13813, S. agalactiae ATCC 13813, read-out: MIC): 8 ng/mL (≈ 4.9 nM)
MIC (Streptococcus agalactiae; S. agalactiae MMX 4088, read-out: MIC): 8 ng/mL (≈ 4.9 nM)
MIC (Streptococcus agalactiae; S. agalactiae MMX 4115, ermR, read-out: MIC): 8 ng/mL (≈ 4.9 nM)
MIC (Streptococcus agalactiae; S. agalactiae ermR, 1 isolate, read-out: MIC): 8 ng/mL (≈ 4.9 nM)
MIC (Streptococcus agalactiae; S. agalactiae, 2 isolates, read-out: MIC (median)): 8 ng/mL (≈ 4.9 nM)
MIC:MBC (Enterococcus faecium; E. faecium VanA VRE): >4
MIC:MBC (Enterococcus faecium; E. faecium VanB VRE): >8
MIC (Enterococcus faecium; E. faecium MMX 4204, VSE): 4 ng/mL (≈ 2.45 nM)
MIC (Enterococcus faecium; E. faecium VSE, 1 isolate): 4 ng/mL (≈ 2.45 nM)
MIC (Enterococcus faecium; VRE, E. faecium MMX 173, VanB VRE): 8 ng/mL (≈ 4.9 nM)
MIC (Enterococcus faecium; VRE, E. faecium MMX 851, VanA VRE): 1000 ng/mL (≈ 613 nM)
MIC (Enterococcus faecium; VRE, E. faecium VanA VRE, 1 isolate): 1000 ng/mL (≈ 613 nM)
MIC (Enterococcus faecium; VRE, E. faecium VanB VRE, 1 isolate): 8 ng/mL (≈ 4.9 nM)
Pulmonary dose ([1]; male, Sprague Dawley): 0.30 mg/kg
Drug lung level at 120 h ([1]; male, Sprague Dawley, 120 h): 105%
Kp [1, 9]: 690
Lung AUC0-∞ [1, 9]: 9800 µg·h/g
Lung Cmax [1, 9]: 48 µg/g
Plasma Cmax [1, 9]: 0.10 µg/mL
Elimination from the lung [1]: not measurably eliminated from the lung
MIC [2]: 0.016 µg/mL (≈ 9.8 nM)
MIC ([3]; S. constellatus AGS, 1 isolate): 8 ng/mL (≈ 4.9 nM)
MIC ([3]; Streptococcus constellatus, S. constellatus (AGS) MMX 5677, read-out: MIC): 8 ng/mL (≈ 4.9 nM)
MIC ([4]; ATCC29970, S. haemolyticus ATCC 29970, read-out: MIC): 0.015 µg/mL (≈ 9.19 nM)
MIC ([4]; S. haemolyticus, 1 isolate, read-out: MIC): 0.015 µg/mL (≈ 9.19 nM)
MIC (Streptococcus oralis; S. oralis MGS, 1 isolate): 0.015 µg/mL (≈ 9.19 nM)
MIC (Streptococcus oralis; Streptococcus oralis, S. oralis (MGS) MMX 5821, read-out: MIC): 0.015 µg/mL (≈ 9.19 nM)
Reduction in MRSA biofilm titer versus control ([5]; doses 1 to 10 μg/ml): ~3 log10 CFU/ml
Concentrations with statistically significant reduction versus control biofilm ([5]; two-way ANOVA, Bonferroni): ≥ 1.25 µg/mL
MIC (Clostridioides difficile; ATCCBAA1805, C. difficile ATCC BAA-1805, ribo 027, read-out: MIC): 0.06 µg/mL (≈ 36.8 nM)
MIC (Clostridioides difficile; ATCCBAA1870, C. difficile ATCC BAA-1870, NAP1;ribo 027, read-out: MIC): 0.12 µg/mL (≈ 73.5 nM)
MIC (Clostridioides difficile; C. difficile ATTC 700057, toxAB-, read-out: MIC): 0.06 µg/mL (≈ 36.8 nM)
MIC (Clostridioides difficile; C. difficile NAP1;ribo 027, 1 isolate, read-out: MIC): 0.12 µg/mL (≈ 73.5 nM)
MIC (Clostridioides difficile; C. difficile ribo 027, 1 isolate, read-out: MIC): 0.06 µg/mL (≈ 36.8 nM)
MIC (Clostridioides difficile; C. difficile toxAB-, 1 isolate, read-out: MIC): 0.06 µg/mL (≈ 36.8 nM)
Average reduction in lung MRSA titer versus vehicle control [6]: 0.8 log10 CFU
MIC ([7]; ATCC27337, P. anaerobius ATCC 27337, read-out: MIC): 8 ng/mL (≈ 4.9 nM)
MIC ([7]; P. anaerobius, 1 isolate, read-out: MIC): 8 ng/mL (≈ 4.9 nM)
MIC ([8]; S. lugdunensis, 1 isolate): 4 ng/mL (≈ 2.45 nM)
MIC ([8]; Staphylococcus lugdunensis, S. lugdunensis MMX 8724, read-out: MIC): 4 ng/mL (≈ 2.45 nM)
